Experimental data reported in US11850253B2, “Two component compositions” (Asamedic AS, priority 2017, dated 2023).

Experiment: Dissolution of ASA together with sodium carbonate (one component) in 15 ml pure water in two-component device
Type: physicochemical
Experimental: In the following example ASA and the disodium salt of carbonic acid (Na2CO3) are dissolved at the same time in 15 ml pure water.
300 mg ASA and 258-263 mg sodium carbonate (Na2CO3) were placed together in the powder compartment of the test device used in example 1, and 15 ml of pure water was filled into the container (bottle) of said device. After releasing the ASA and sodium carbonate into the water, the solution was shaken until all ASA was dissolved.

- pH of the solutions after dissolution of ASA and the carbonate salt (300 mg ASA and 258-263 mg Na2CO3, 15 ml pure water): 9.41-9.43
- Time before ASA was dissolved (300 mg ASA and 258-263 mg Na2CO3 together as powder, 15 ml pure water): approx. 120 sec.
SMILES: CC(=O)Oc1ccccc1C(=O)O [ASA, acetylsalicylic acid]
